From US10040839B2, “Insulin derivatives and the medical uses hereof” (Novo Nordisk A/S, priority 2014, dated 2018)

Tests used:
[1] = biological target: T1, solubilised human IR-A (Homo sapiens, UniProt P06213); assay: Insulin receptor affinity on solubilised receptors, SPA competition binding, 0% HSA; settings: solubilised cloned human insulin receptor A isoform, % relative to human insulin
T1 construct: made in house; host or cells: baby hamster kidney (BHK) cells overexpressing the IR-A holoreceptor
T1 sequence (P06213 28-746 isoform P06213-2 limits assumed): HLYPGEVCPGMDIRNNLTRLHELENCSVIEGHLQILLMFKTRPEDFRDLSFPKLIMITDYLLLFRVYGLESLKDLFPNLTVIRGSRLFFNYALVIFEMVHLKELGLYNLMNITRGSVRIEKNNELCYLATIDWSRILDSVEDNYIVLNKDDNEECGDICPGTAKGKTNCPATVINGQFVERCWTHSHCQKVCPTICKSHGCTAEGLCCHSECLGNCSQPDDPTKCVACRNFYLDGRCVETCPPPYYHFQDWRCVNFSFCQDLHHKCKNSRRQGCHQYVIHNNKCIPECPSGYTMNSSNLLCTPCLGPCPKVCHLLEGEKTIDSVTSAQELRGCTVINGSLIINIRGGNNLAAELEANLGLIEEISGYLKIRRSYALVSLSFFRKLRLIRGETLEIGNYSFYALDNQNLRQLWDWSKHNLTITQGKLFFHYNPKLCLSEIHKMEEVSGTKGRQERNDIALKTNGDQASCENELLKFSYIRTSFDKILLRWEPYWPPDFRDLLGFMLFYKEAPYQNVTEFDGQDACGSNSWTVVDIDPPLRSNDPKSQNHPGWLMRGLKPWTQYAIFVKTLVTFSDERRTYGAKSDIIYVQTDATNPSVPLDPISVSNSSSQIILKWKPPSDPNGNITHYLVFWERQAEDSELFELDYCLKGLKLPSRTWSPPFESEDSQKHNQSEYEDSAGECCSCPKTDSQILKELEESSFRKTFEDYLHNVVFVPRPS
T1 sequence (P06213 763-1382 partner limits assumed): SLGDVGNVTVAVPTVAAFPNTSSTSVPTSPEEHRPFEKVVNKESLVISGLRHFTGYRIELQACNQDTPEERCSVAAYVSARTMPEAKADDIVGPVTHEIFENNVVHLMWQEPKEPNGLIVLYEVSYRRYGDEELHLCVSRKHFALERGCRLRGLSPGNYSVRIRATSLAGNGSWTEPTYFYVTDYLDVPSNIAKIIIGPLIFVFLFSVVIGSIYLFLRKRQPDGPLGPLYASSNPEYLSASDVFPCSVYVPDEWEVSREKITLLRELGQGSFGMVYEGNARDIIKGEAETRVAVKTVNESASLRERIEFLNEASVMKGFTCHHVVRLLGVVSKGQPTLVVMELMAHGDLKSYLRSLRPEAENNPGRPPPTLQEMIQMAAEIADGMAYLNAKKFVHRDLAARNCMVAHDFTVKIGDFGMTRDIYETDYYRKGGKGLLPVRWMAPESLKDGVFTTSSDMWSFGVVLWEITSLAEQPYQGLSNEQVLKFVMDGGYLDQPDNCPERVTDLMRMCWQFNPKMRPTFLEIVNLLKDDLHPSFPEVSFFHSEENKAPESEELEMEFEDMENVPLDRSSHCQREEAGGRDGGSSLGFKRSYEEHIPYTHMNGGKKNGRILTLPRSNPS

[2] = biological target: T1, solubilised human IR-A; assay: Insulin receptor affinity on solubilised receptors, SPA competition binding, binding buffer with […] HSA; settings: solubilised cloned human insulin receptor A isoform, % relative to human insulin
[3] = biological target: T2, membrane-associated human IR-A (Homo sapiens, UniProt P06213); assay: Insulin receptor affinity on membrane-associated receptors, SPA competition binding
T2 construct: expressed in transfected cells; host or cells: BHK cells stably transfected with pZem219B vector (plasma membrane preparation)
T2 sequence (P06213 28-746 isoform P06213-2 limits assumed): as the sequence (P06213 28-746 isoform P06213-2 limits assumed) above
T2 sequence (P06213 763-1382 partner limits assumed): as the sequence (P06213 763-1382 partner limits assumed) above
Description: (§1) Membrane-associated human IR and IGF-1R are purified from BHK cells stably transfected with the pZem219B vector containing either the human IR-A, IR-B or IGF-IR insert. BHK cells are harvested and homogenized in ice-cold buffer (25 mM HEPES pH 7.4, 25 mM CaCl2 and 1 mM MgCl2, 250 mg/L bacitracin, 0.1 mM Pefablock). […] The pellets are re-suspended in a minimal volume of buffer and drawn through a needle (size 23) three times before storage at −80° C. until usage.
(§2) The relative binding affinity for either of the membrane-associated human IR-A, IR-B or IGF-1R is determined by competition binding in a SPA setup. IR assays are performed in duplicate in 96-well OptiPlates (Perkin-Elmer Life Sciences). […] Assays are terminated by centrifugation of the plate at 2000 rpm for 2 minutes and bound radioactivity quantified by counting on a TopCount NXT (Perkin-Elmer Life Sciences).
(§3) IGF-1R assays are conducted essentially as for the IR binding assays except that membrane-associated IGF-1R and 50 pM [^125 I-Tyr31]-human IGF-1 were employed.

[4] = biological target: T3, membrane-associated human IGF-1R (Homo sapiens, UniProt P08069); assay: IGF-1 receptor affinity on membrane-associated receptors, SPA competition binding; settings: membrane-associated cloned human IGF-1R, % relative to human insulin
T3 construct: expressed in transfected cells; host or cells: BHK cells stably transfected with pZem219B vector (plasma membrane preparation)
T3 sequence (P08069 31-736 limits assumed): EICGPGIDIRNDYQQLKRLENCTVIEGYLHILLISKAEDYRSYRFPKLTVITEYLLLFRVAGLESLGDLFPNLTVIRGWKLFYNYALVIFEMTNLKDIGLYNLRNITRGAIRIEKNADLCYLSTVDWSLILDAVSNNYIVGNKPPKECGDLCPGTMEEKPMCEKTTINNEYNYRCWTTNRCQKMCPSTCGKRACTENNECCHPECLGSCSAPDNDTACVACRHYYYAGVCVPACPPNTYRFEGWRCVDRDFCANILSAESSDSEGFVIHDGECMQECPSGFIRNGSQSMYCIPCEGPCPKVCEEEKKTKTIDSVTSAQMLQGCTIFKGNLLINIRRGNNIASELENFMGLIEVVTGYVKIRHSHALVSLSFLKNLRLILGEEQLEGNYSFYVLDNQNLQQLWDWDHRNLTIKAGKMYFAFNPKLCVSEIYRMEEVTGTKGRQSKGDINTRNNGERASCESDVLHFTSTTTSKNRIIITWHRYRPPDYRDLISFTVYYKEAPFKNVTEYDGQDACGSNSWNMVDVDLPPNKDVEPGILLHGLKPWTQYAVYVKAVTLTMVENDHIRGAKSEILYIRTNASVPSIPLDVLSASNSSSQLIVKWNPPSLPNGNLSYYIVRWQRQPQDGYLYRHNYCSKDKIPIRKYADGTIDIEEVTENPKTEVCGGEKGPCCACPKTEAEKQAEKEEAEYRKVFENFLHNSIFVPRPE
T3 sequence (P08069 741-1367 partner limits assumed): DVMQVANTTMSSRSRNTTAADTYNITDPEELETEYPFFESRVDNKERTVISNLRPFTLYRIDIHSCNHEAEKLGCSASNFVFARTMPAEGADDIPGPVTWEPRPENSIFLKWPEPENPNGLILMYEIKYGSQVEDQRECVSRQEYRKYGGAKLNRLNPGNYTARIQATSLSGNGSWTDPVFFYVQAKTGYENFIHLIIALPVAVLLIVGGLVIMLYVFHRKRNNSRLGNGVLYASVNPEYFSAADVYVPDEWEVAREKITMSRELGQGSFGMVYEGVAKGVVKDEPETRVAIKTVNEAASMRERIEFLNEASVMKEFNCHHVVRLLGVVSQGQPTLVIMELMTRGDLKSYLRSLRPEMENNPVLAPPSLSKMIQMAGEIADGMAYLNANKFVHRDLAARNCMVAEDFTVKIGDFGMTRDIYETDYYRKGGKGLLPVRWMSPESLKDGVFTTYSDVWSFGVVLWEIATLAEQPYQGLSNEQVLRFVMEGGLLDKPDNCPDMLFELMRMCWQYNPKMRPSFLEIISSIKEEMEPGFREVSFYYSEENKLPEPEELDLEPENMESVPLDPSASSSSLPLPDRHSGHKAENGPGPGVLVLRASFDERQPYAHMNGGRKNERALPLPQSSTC
Description: as §1, §2, §3

## A22K(N(Eps)-Tetradecanedioyl-2×OEG), desB27, B29R, desB30 Human Insulin [Example 17]
[1]
  Relative IR-A affinity (@ 0% HSA): 241.7%
[2]
  Relative IR-A affinity (@ […] HSA): 117.9%
[3]; membrane-associated cloned human IR-A, 0.1% HSA, % relative to human insulin
  Relative IR-A affinity (@ 0.1% HSA): 117.3%
[3]; ratio of IR-A to IGF-1R affinities from membrane-associated receptors
  IR IGF1 ratio: 0.21
[4]
  Relative IGF-1R affinity (@ 0.1% HSA): 546.4%
